# Reference: US20040009464A1, “Methods for identifying compounds for inhibition of neoplastic lesions, and pharmacetical compositions containing such compounds” (priority 1998, published 2004)
# Columns and labels:
# [1] = tested on: premalignant lesions in mouse mammary gland organ culture; assay: Mammary gland organ culture model; assay type: cell-based; conditions: FIG. 17
# From the text: Test compounds identified by the above methods can be tested for antineoplastic activity by their ability to inhibit the incidence of pre-neoplastic lesions in a mammary gland organ culture system. This mouse mammary gland organ culture technique has been successfully used by other investigators to study the effects of known antineoplastic agents such as certain NSAIDs, retinoids, tamoxifen, selenium, and certain natural products, and is useful for validation of the screening method of the present invention.
# For example, female BALB/c mice can be treated with a combination of estradiol and progesterone daily, in order to prime the glands to be responsive to hormones in vitro. The animals are sacrificed, and thoracic mammary glands are excised aseptically and incubated for ten days in growth media supplemented with insulin, prolactin, hydrocortisone, and aldosterone. DMBA (7,12-dimethylbenz(a)anthracene) is added to medium to induce the formation of premalignant lesions Fully developed glands are then deprived of prolactin, hydrocortisone, and aldosterone, resulting in the regression of the glands but not the pre-malignant lesions.
# The test compound is dissolved in DMSO and added to the culture media for the duration of the culture period. At the end of the culture period, the glands are fixed in 10% formalin, stained with alum camine, and mounted on glass slides. The incidence of forming mammary lesions is the ratio of the glands with mammary lesions to […]. The incidence of mammary lesions in test compound treated glands is compared with that of the untreated glands.
# The extent of the area occupied by the mammary lesions can be quantitated by projecting an image of the gland onto a digitation pad. The area covered by the gland is traced on the pad and considered as 100% of the area. The space covered by each of the non-regressed structures is also outlined on the digitization pad and quantitated by the computer.
# Mammary gland organ culture experiment were performed as previously described (Mehta and Moon, Cancer Research, 46: 5832-5835, 1986). […]
# [2] = tested on: PKG in HCT116 colon cancer cells; assay: PKG activity assay on lysates of drug-treated HCT116 cells; assay type: cell-based
# From the text: To test the effect of cGMP-specific PDE inhibition on neoplasia containing the β-catenin mutation, HCT116 colon cancer celis were employed. HCT116 is known to contain the β-catenin mutation, but is known not to contain the APC mutation.
# The same procedure is used to grow the HCT116 cells as is used in the SW480 procedure described above. In this experiment, only exisulind and controls were used.
# [3] = tested on: β-catenin and PKG in SW480 cells; assay: Western blot of β-catenin and PKG in SW480 cells; assay type: cell-based, human
# Protocol: SW480 cells treated with exisulind as described previously are harvested from the microfuge tubes by rinsing once with ice-cold PBS. The cells are lysed by modified RIPA buffer for 15 minutes with agitation. The cell lysate is spun down in a cold room. The supernatants are transferred to fresh microcentrifuge tubes immediately after spinning. BioRad DC Protein Assay (Temecula, CA) is performed to determine the protein concentrations in samples. The samples are normalized for protein concentration, as described above.
# 50 μg of each sample is loaded to 10% SDS gel. SDS-PAGE is performed, and the proteins then are transferred to a nitrocellulose membrane. The blotted nitrocellulose membrane are blocked in freshly prepared TBST containing 5% nonfat dry milk for one hour at room temperature with constant agitation.
# A goat-anti-PKG primary antibody is diluted to the recommended concentration/dilution in fresh TBST/5% nonfat dry milk. The nitrocellulose membrane is placed in the primary antibody solution and incubated one hour at room temperature with agitation. The nitrocellulose membrane is washed three times for ten minutes each with TBST. […]
# This observation was made by culturing SW480 cells with either 200, 400 or 600 μM exisulind or vehicle (0.1% DMSO). […] Immuno-reactive protein can be detected by Western blot. […]
# polyps in APC patients = assay: Clinical prevention trial in patients with adenomatous polyposis coli (APC); assay type: in vivo, human
# From the text: The first clinical trial involved patients with APC. using exisulind. In that study, each patient had already had his/her colon removed, except for a small section of colon adjacent the rectum (where the small intestine was attached) to preserve rectal function. However, such a patient commonly forms polyps in the small remaining colonic section, which polyps require periodic removal (e.g., by electrocautery).
# That trial where exisulind was selected was a prevention trial designed to evaluate the anti-neoplastic characteristics of the drug by comparing the cumulative number of new polyps formed over twelve months by the drug and placebo groups. Eligible patients were those who form between 9 and 44 polyps per year. Patients were fully ablated (had all polyps removed) at the start of the study, at the end of 6 months and at the end of 12 months. The study enrolled thirty-four eligible patients. […] Based on the median number of polyps produced in the first six months of the study, patients treated with exisulind developed approximately one-third the number of polyps as patients treated with placebo (median values 9 polyps/year and 26 polyps/year, respectively; p=0.013). […]
# [4] = Safety evaluation in exisulind clinical trials; assay type: in vivo
# Protocol: In these exisulind trials and several others involving the drug in other indications, safety was evaluated by monitoring adverse events (AEs), clinical laboratory tests (hematology, serum chemistry, and urinalysis), vital signs (blood pressure, pulse rate, respiratory rate, temperature, and weight), physical examination, and upper endoscopy.
# [5] = biological target: T1, cGMP binding sites of GST-cGB-PDE5 fusion protein (Homo sapiens, UniProt O76074); assay: cGMP binding assay with GST-cGB-PDE5 fusion protein; conditions: FIG. 24
# T1 construct: made in house; host or cells: E. coli BL21 (DE3)
# T1 sequence (O76074 46-539 limits assumed): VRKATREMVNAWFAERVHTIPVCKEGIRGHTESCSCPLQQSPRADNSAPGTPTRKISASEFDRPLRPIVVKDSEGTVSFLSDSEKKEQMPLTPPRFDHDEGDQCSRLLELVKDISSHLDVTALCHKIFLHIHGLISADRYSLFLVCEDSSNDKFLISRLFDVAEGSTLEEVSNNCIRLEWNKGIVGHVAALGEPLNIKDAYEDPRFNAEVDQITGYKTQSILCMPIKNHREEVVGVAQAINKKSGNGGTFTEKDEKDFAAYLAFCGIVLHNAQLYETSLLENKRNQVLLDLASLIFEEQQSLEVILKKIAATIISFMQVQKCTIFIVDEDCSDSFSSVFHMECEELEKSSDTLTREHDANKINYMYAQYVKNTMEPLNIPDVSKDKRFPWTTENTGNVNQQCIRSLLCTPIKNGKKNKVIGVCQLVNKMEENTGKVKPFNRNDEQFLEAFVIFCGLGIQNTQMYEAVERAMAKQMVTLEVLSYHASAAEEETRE
structure (smiles),measurement,setting,value
"CC1=C(CC(=O)O)c2cc(F)ccc2/C1=C\c1ccc(S(C)(=O)=O)cc1 [Exisulind, 5-fluoro-2-methyl-1-(p-methylsulfonylbenzylidene)-3-indenylacetic acid]",inhibition of premalignant lesions in mammary gland organ culture,[1],effectively inhibit the formation of premalignant lesions
same,PKG activity relative to control,[2],PKG that was phosphorylated to a greater extent than the corresponding controls
same,reduction of β-catenin expression compared to control,"[3]; SW480, 200, 400 or 600 μM, 48 hours, Western blot",50%
same,PKG level by Western blot,"[3]; SW480, 48 hours",increase of PKG
same,"median number of polyps, entire 12 months",polyps in APC patients; entire 12 months of the study,18 polyps/year
same,"median number of polyps, first six months",polyps in APC patients; first six months of the study,9 polyps/year
same,clinical safety,"[4]; human, in vivo",No outstanding safety issues have been demonstrated
same,dose-limiting adverse events,"[4]; human, in vivo",elevations in liver function tests
same,apoptosis rates in polyp and normal colonic tissues,[4]; paired biopsies in APC patients,"increased apoptosis rates in polyp, but not normal colonic tissues"
same,competition with cGMP (2 μM) in binding of GST-cGB-PDE5,[5],None of the PDE5 inhibitors showed any competition
